Assay results as given in publication PMC6961116, “Scaffold-hopping identifies furano[2,3-d]pyrimidine amides as potent Notum inhibitors” (Bioorganic & Medicinal Chemistry Letters, 2020).
Several values for one entry are separate records, joined by “and”; a condition that tells them apart may be missing. Equal entries are not always repeated. Where two headings read alike, the source gives them in different places.

How the values were obtained:
Notum [1] = biological target: T1, Notum (Homo sapiens, UniProt Q6P988); test: Notum TCF/LEF reporter (Luciferase) HEK293 cell assay
T1 sequence (Q6P988 20-496): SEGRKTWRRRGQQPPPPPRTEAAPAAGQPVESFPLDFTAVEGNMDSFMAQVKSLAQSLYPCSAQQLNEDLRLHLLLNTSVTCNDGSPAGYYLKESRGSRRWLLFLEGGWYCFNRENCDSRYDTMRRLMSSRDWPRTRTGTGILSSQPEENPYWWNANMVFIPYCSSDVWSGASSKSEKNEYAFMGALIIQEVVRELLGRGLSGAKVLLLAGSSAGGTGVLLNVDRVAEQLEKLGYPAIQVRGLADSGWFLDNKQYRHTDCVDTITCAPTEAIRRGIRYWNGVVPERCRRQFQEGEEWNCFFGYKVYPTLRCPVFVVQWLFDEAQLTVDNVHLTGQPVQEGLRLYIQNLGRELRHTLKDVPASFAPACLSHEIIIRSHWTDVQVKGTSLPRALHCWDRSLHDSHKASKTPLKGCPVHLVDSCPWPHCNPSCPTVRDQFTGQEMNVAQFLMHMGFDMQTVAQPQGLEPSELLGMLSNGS
Description: Selected compounds were screened for inhibition of Notum activity in a Wnt/β-catenin signaling pathway TCF/LEF Reporter (Luciferase) HEK293 cell line and Notum occupancy in a FP-biotin competition assay.[15], [18]

[2] = Metabolic stability in mouse liver microsomes (MLM); assay type: in vitro ADME
P-gp (MDR1) = test: MDCK-MDR1 cell permeability and efflux; assay type: in vitro ADME; conditions: dog; for efflux ratio: MDCK-MDR1, read-out: MDCK-MDR1 efflux ratio (ER)
Notum(81–451 Cys330Ser) [3] = biological target: T2, Notum(81–451 Cys330Ser) (Homo sapiens, UniProt Q6P988, C330S); test: Notum biochemical OPTS assay (carboxylesterase activity); conditions: OPTS substrate, 1 h incubation; geometric mean ± s.d.
T2 sequence (Q6P988 81-451 C330S): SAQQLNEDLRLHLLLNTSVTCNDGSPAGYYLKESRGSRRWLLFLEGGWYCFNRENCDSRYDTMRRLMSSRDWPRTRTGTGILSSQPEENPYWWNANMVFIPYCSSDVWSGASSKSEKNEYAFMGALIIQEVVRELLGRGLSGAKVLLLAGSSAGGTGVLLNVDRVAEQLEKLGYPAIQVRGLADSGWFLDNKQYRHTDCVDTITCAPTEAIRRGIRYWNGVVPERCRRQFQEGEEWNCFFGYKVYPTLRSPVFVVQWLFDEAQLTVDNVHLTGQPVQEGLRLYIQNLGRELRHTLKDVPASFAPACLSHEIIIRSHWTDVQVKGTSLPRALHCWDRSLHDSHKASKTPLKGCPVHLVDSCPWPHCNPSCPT

[4] = Hydrolytic stability in citrate buffer; assay type: physicochemical; conditions: citrate buffer 0.1 M, pH 4, up to 24 h, UPLC-MS
Notum [5] = biological target: T3, Notum (Homo sapiens, UniProt Q6P988, C330S); test: Notum enzymatic stability (biochemical assay without OPTS substrate); conditions: up to 72 h
T3 sequence (Q6P988 81-451 C330S): T2 sequence (Q6P988 81-451 C330S)

MDCK-MDR1 monolayer = conditions: amides 4, cited from earlier work; for MDCK-MDR1 AB Papp: A to B direction; for MDCK-MDR1 BA Papp: B to A direction
[6] = mouse liver microsomes; amides 4; cited from earlier work
Notum(81–451 Cys330Ser) [7] = biological target: T2, Notum(81–451 Cys330Ser); conditions: thieno[3,2-d]pyrimidine amides 4; OPTS assay; geometric mean ± s.d.; cited from earlier work
CYP2D6 = CYP2D6 (Homo sapiens, UniProt P10635); test: CYP2D6 inhibition; assay type: in vitro ADME
Mouse plasma stability = assay type: in vitro ADME
Excerpt: However, the ER for 24 was perceived to be within acceptable limits based on established precedent.[22] [table]

CYP1A2 = biological target: T4, CYP1A2 (Homo sapiens, UniProt P05177); test: CYP1A2 inhibition; assay type: in vitro ADME
T4 sequence (P05177 1-516): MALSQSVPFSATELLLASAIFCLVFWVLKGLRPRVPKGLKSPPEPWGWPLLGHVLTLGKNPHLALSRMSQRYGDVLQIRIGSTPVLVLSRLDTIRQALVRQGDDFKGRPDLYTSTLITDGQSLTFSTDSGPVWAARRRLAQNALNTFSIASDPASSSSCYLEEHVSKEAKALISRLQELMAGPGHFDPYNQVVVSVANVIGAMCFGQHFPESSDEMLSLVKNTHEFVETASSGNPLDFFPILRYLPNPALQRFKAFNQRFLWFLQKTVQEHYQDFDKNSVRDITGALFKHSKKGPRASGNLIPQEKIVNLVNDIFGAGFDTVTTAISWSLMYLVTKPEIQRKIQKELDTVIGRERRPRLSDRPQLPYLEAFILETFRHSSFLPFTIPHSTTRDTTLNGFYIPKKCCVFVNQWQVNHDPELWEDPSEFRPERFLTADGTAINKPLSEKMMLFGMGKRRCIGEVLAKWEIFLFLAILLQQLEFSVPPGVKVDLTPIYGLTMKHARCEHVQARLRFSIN

[8] = Mouse pharmacokinetics, single oral dose; assay type: in vivo; conditions: p.o. 10 mg/kg
Description: At this point, mouse pharmacokinetic data for 5l was generated in vivo to determine the extent of plasma exposure and to check the correlation of the in vitro ADME data with in vivo outcomes.
Animal Testing Declaration: In vivo mouse pharmacokinetic data was generated at GVK Biosciences, Hyderabad, India. GVK Biosciences is accredited by AAALAC and OLAW for the ethical treatment of animals. All the animal experiments are conducted in accordance with IAEC approved protocols. See: https://www.gvkbio.com/biology-services/in-vivo-pharmacology/

CYP3A4 = CYP3A4 (Homo sapiens, UniProt P08684); test: CYP3A4 inhibition; assay type: in vitro ADME
CYP2B6 = biological target: T5, CYP2B6 (Homo sapiens, UniProt P20813); test: CYP2B6 inhibition; assay type: in vitro ADME
T5 sequence (P20813 1-491): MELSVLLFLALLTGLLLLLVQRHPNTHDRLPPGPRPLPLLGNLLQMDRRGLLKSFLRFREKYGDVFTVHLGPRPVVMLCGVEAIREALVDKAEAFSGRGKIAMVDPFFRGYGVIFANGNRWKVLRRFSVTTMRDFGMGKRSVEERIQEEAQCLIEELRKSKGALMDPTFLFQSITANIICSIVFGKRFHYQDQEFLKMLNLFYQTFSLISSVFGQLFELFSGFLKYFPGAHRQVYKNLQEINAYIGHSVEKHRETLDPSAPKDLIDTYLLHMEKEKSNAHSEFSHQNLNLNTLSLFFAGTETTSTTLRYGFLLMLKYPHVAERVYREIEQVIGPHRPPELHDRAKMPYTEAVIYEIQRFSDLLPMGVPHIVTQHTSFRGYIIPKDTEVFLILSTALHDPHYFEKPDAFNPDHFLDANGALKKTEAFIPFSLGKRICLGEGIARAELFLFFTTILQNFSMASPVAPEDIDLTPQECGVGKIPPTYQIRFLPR

Aqueous solubility = assay type: physicochemical; conditions: read-out: Aq. solubility
CYP2C9 = CYP2C9 (Homo sapiens, UniProt P11712); test: CYP2C9 inhibition; assay type: in vitro ADME
LogD7.4 = assay type: physicochemical; conditions: pH 7.4
[9] = read-out: Notum EC50 (TCF-LEF), rWNT3a 100 ng/mL, Notum 500 ng/mL, geometric mean ± s.d., n = 3–4
[10] = MDCK-MDR1, A to B direction, read-out: MDCK-MDR1 AB Papp
[11] = MDCK-MDR1, B to A direction, read-out: MDCK-MDR1 BA Papp
[12] = C57BL/6, mouse, po, brain, male C57BL6 mice
[13] = C57BL/6, mouse, po, plasma, male C57BL6 mice

CYP2C9, sequence (P11712 whole entry): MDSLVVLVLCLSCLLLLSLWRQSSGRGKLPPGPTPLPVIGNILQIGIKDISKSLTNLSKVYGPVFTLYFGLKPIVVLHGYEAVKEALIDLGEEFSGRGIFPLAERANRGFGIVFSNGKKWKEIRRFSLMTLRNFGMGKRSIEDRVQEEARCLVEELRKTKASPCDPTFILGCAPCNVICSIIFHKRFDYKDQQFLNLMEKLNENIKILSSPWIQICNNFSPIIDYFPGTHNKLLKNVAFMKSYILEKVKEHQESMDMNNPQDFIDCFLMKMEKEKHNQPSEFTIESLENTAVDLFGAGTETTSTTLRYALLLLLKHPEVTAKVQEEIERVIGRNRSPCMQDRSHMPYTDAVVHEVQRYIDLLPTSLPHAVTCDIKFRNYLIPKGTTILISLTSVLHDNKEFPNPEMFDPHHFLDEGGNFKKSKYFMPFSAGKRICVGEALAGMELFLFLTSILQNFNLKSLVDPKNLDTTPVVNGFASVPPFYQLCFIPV
CYP2D6, sequence (P10635 whole entry): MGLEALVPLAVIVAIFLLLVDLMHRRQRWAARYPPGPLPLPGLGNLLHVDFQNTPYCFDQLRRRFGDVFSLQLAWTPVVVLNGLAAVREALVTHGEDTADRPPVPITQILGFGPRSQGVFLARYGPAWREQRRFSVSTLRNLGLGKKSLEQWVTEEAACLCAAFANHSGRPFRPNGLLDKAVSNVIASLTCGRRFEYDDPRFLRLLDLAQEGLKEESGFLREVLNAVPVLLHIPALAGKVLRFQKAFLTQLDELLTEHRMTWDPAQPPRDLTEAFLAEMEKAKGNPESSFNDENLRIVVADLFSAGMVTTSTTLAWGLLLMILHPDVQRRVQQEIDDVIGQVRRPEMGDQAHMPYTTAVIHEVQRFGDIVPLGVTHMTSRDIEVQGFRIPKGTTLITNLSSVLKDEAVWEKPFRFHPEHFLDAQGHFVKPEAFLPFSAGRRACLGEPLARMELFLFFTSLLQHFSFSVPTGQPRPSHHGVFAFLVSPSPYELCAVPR
CYP3A4, sequence (P08684 whole entry): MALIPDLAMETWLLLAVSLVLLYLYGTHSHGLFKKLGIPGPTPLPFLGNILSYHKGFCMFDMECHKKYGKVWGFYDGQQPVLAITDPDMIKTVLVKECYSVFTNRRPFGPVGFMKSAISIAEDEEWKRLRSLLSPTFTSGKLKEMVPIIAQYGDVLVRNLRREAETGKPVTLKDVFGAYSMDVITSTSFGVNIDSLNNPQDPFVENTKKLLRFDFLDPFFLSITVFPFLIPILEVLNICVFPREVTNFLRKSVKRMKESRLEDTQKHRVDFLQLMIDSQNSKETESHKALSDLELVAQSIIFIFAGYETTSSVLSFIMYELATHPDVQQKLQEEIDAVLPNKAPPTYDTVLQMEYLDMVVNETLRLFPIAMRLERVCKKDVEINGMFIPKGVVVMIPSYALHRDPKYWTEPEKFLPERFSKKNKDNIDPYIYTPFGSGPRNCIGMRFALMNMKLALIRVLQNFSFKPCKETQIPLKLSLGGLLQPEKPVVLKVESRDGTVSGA

CN1CN(C(=O)CSc2ncnc3c(C4CC4)c(Cl)sc23)CC1=O [Compound 20]
EC50 (Notum [1]): < 0.25 µM | EC50 (Notum [1]; [9]): 0.11 µM | MLM Cli ([2]; mouse liver microsomes): 45 µL/min/mg | Papp (P-gp (MDR1); [10]): 59 nm/s | Papp (P-gp (MDR1); [11]): 120 nm/s | efflux ratio (P-gp (MDR1)): 2

Cc1sc2ncnc(SCC(=O)N3CC(=O)N(C)C3)c2c1C [Compound 21]
Activation of Wnt signaling (in words) (Notum [1]; TCF/LEF reporter, rWNT3a 100 ng/mL, Notum 500 ng/mL): only modest activation of Wnt signaling | EC50 (Notum [1]; [9]): 1.3 µM | MLM Cli ([2]; mouse liver microsomes): 31 µL/min/mg | IC50 (Notum(81–451 Cys330Ser) [3]): 0.0094 ± 0.0015 µM | Papp (P-gp (MDR1); [10]): 210 nm/s | Papp (P-gp (MDR1); [11]): 450 nm/s | efflux ratio (P-gp (MDR1)): 2.1

Cc1sc2ncnc(SCC(=O)N3CCn4cnnc4C3)c2c1Cl [Compound 5f]
MLM Cli ([2]; mouse liver microsomes): 13 µL/min/mg | Hydrolytic stability [4]: only parent was detected | Notum enzymatic stability (Notum [5]): only parent was detected | IC50 (Notum(81–451 Cys330Ser) [3]): 0.0032 ± 0.0001 µM | Papp (P-gp (MDR1); [10]): 6 nm/s | Papp (P-gp (MDR1); [11]): 560 nm/s | efflux ratio (P-gp (MDR1)): 93

O=C(CSc1ncnc2c(C3CC3)c(Cl)sc12)N1CCOCC1 [Compound 4c]
MDCK-MDR1 AB Papp (MDCK-MDR1 monolayer): 400 nm/s | MDCK-MDR1 BA Papp (MDCK-MDR1 monolayer): 380 nm/s | MLM Cli [6]: >500 µL/min/mg

Cc1sc2ncnc(SCC(=O)N3CC(=O)N(C)C3)c2c1C(F)(F)F [Compound 23]
EC50 (Notum [1]; [9]): 0.17 µM | MLM Cli ([2]; mouse liver microsomes): 24 µL/min/mg | IC50 (Notum(81–451 Cys330Ser) [3]): 0.007 ± 0.0025 µM

O=C1CN(C(=O)CSc2ncnc3c(C4CC4)c(Cl)sc23)CCN1 [Compound 4d]
MDCK-MDR1 AB Papp (MDCK-MDR1 monolayer): 79 nm/s | MDCK-MDR1 BA Papp (MDCK-MDR1 monolayer): 650 nm/s | IC50 (Notum(81–451 Cys330Ser) [7]): < 0.01 µM

Cc1c(C(F)(F)F)oc2ncnc(SCC(=O)N3CC(=O)N(C)C3)c12 [Compound 24, 3-Methyl-1-(2-((5-methyl-6-(trifluoromethyl)furo[2,3-d]pyrimidinyl-4-yl)thio)acetyl)imidazolin-4-one]
IC50 (CYP2D6): > 30 µM | MLM Cli ([2]; Table 5): 6.9 μL/min/mg protein | MLM Cli ([2]; mouse liver microsomes): 6.9 µL/min/mg | Metabolic stability in MLM (in words) ([2]; mouse liver microsomes): high metabolic stability | Mouse plasma stability (in words) (Mouse plasma stability; after 120 min): no degradation observed | remaining at 2 h (Mouse plasma stability; mouse, plasma, 120 min): 110% | IC50 (CYP1A2): > 30 µM | Cmax at 24 h [8, 12]: 1210 ng/g | Tmax [8, 12]: 30 min | AUC(0-inf) at 24 h [8, 13]: 5.49 µg·h/mL | AUC(0-t) at 24 h [8, 13]: 5.39 µg·h/mL | Cmax at 24 h [8, 13]: 3.85 µg/mL | Tmax [8, 13]: 30 min | AUC(0-inf) ([8]; brain, male C57BL6 mice): 1610 ng·h/g | AUC(0-t) ([8]; brain, male C57BL6 mice): 1550 ng·h/g | Cmax[brain] (free drug) ([8]; mouse, free drug): ≈ 0.5 μM | Cmax[plasma] (free drug) ([8]; mouse, free drug): ≈ 2.2 μM | IC50 (CYP3A4): > 30 µM | IC50 (CYP2B6): > 30 µM | solubility (Aqueous solubility): 45 µg/mL and 120 µM | IC50 (CYP2C9): > 30 µM

Cc1c(C(F)(F)F)sc2ncnc(SCC(=O)N3CC(=O)N(C)C3)c12 [Compound 22]
EC50 (Notum [1]; [9]): 0.21 µM | MLM Cli ([2]; mouse liver microsomes): 27 µL/min/mg | IC50 (Notum(81–451 Cys330Ser) [3]): 0.0016 ± 0.0001 µM | Papp (P-gp (MDR1); [10]): 310 nm/s | Papp (P-gp (MDR1); [11]): 350 nm/s | efflux ratio (P-gp (MDR1)): 1.1

Cc1sc2ncnc(SCC(=O)N3CC(=O)N(C)C3)c2c1Cl [Compound 5l]
Hydrolytic stability [4]: only parent was detected | Notum enzymatic stability (Notum [5]): only parent was detected | Cmax [8, 13]: 0.12 µg/mL | AUC(0-inf) ([8]; C57BL/6, mouse, po, plasma, male C57BL6 mice, read-out: AUC(0-inf)): 0.07 µg·h/mL | IC50 (Notum(81–451 Cys330Ser) [3]): 0.0024 ± 0.0004 µM | Papp (P-gp (MDR1); [10]): 360 nm/s | Papp (P-gp (MDR1); [11]): 420 nm/s | logD (LogD7.4): 1.8 | solubility (Aqueous solubility): 77 µg/mL and 215 µM
